Results: PubChem BioAssay (NCI)
Values joined by “and” are separate entries in the source; they are usually repeats but may differ in a detail not shown here. Equal values may be shown once.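 Assay format: 96-well plates, 48-hour exposure. The concentration for 50% growth inhibition is given as GI50. TGI marks complete inhibition of growth.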

Legend:
Assay in all cases: DTP human tumour cell line panel, 48 h
A498 renal = test system: A498 renal
M14 melanoma = test system: M14 melanoma
HOP-92 NSCLC = test system: HOP-92 NSCLC
OVCAR-8 ovarian = test system: OVCAR-8 ovarian
UACC-62 melanoma = test system: UACC-62 melanoma
SK-MEL-5 melanoma = test system: SK-MEL-5 melanoma
TK-10 renal = test system: TK-10 renal
MDA-MB-468 breast = test system: MDA-MB-468 breast
ACHN renal = test system: ACHN renal
BT-549 breast = test system: BT-549 breast
OVCAR-4 ovarian = test system: OVCAR-4 ovarian
MDA-MB-435 = test system: MDA-MB-435
HCC-2998 colon = test system: HCC-2998 colon
T-47D breast = test system: T-47D breast
COLO 205 colon = test system: COLO 205 colon
RPMI-8226 leukemia = test system: RPMI-8226 leukemia
OVCAR-5 ovarian = test system: OVCAR-5 ovarian
SK-OV-3 ovarian = test system: SK-OV-3 ovarian
OVCAR-3 ovarian = test system: OVCAR-3 ovarian
786-0 renal = test system: 786-0 renal
MDA-MB-231 breast = test system: MDA-MB-231 breast
SNB-19 CNS = test system: SNB-19 CNS
NCI-H23 lung = test system: NCI-H23 lung
HS 578T breast = test system: HS 578T breast
MALME-3M melanoma = test system: MALME-3M melanoma
SN12C renal = test system: SN12C renal
UACC-257 melanoma = test system: UACC-257 melanoma

SMILES: CC(C)C[C@H](NC(=O)[C@@H]1CCCCCCCCCCC(=O)N[C@@H](CC(=O)N2CCC[C@@H]2C2CCCC2)C(=O)N1)B(O)O
- TGI (A498 renal): 98.2 nM and 180 nM
- GI50 (M14 melanoma): 5.5 nM
- TGI (M14 melanoma): 75.4 nM and 109 nM
- GI50 (HOP-92 NSCLC): 2.23 nM
- TGI (HOP-92 NSCLC): 6.22 nM
- GI50 (OVCAR-8 ovarian): 22.2 nM and 15.7 nM
- TGI (OVCAR-8 ovarian): 10200 nM
- GI50 (UACC-62 melanoma): 1.77 nM
- TGI (UACC-62 melanoma): 3.56 nM
- GI50 (SK-MEL-5 melanoma): 1.77 nM
- TGI (SK-MEL-5 melanoma): 4.27 nM
- GI50 (TK-10 renal): 41 nM and 37.3 nM
- TGI (TK-10 renal): 208 nM and 462 nM
- GI50 (MDA-MB-468 breast): 2.02 nM
- TGI (MDA-MB-468 breast): 4.4 nM
- GI50 (ACHN renal): 58.5 nM and 25.9 nM
- TGI (ACHN renal): 5940 nM
- GI50 (BT-549 breast): 1.4 nM
- TGI (BT-549 breast): 3.05 nM
- GI50 (OVCAR-4 ovarian): 3.65 nM
- TGI (OVCAR-4 ovarian): 16.9 nM
- GI50 (MDA-MB-435): 2.57 nM
- TGI (MDA-MB-435): 6.73 nM
- GI50 (HCC-2998 colon): 1.83 nM
- TGI (HCC-2998 colon): 3.32 nM
- GI50 (T-47D breast): 1.99 nM
- TGI (T-47D breast): 5.29 nM
- GI50 (COLO 205 colon): 4.5 nM
- TGI (COLO 205 colon): 20.2 nM and 18 nM
- GI50 (RPMI-8226 leukemia): 3.72 nM
- GI50 (OVCAR-5 ovarian): 2.89 nM
- TGI (OVCAR-5 ovarian): 11.9 nM
- GI50 (SK-OV-3 ovarian): 4.43 nM
- TGI (SK-OV-3 ovarian): 23.6 nM and 15.9 nM
- GI50 (OVCAR-3 ovarian): 4.07 nM
- TGI (OVCAR-3 ovarian): 16.8 nM
- GI50 (786-0 renal): 24.9 nM and 21.8 nM
- TGI (786-0 renal): 173 nM and 168 nM
- GI50 (MDA-MB-231 breast): 1.87 nM
- TGI (MDA-MB-231 breast): 3.81 nM
- GI50 (SNB-19 CNS): 3.67 nM
- GI50 (NCI-H23 lung): 2.15 nM
- TGI (NCI-H23 lung): 5.11 nM
- GI50 (HS 578T breast): 4.22 nM
- TGI (HS 578T breast): 94 nM
- GI50 (MALME-3M melanoma): 1.64 nM
- TGI (MALME-3M melanoma): 3.71 nM and 23.8 nM
- GI50 (SN12C renal): 2.15 nM
- TGI (SN12C renal): 5.04 nM and 11.3 nM
- GI50 (UACC-257 melanoma): 3.76 nM
- TGI (UACC-257 melanoma): 289 nM and 1200 nM
